Data reported in patent publication EP1247803A2, “Indolinone compounds suitable for modulation of protein kinases” (Sugen, Inc., priority 1996, dated 1998).

Legend:
MET = MET biochemical kinase assay; parameters: species or system human; concentration or dose not given beside the values
Method in brief: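 In this format, tyrosine phosphorylation of plate-captured human MET is followed in vitro after compound addition in ATP/divalent-cation buffer, detected by anti-phosphotyrosine-HRP with TMB substrate.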

FLK-1 receptor = target: T1, FLK-1 receptor (Mus musculus, UniProt P35918); assay: FLK-1 ELISA (kinase activity of the FLK-1 receptor in FLK-1/NIH3T3 cells, VEGF stimulated); format: cell-based
T1 construct: expressed in transfected cells; host or cells: NIH3T3 C7#3
Method in brief: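 An ELISA using affinity-purified rabbit anti-FLK-1 antiserum on anti-rabbit IgG-coated plates measured VEGF-stimulated FLK-1 kinase activity. NIH3T3 C7#3 cells carrying FLK-1 were serum-starved (0.1% FBS) overnight, then exposed to compound (final 1:200 dilution, 0.5% DMSO) for two hours at 37 °C.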

T1 sequence (P35918 20-1345): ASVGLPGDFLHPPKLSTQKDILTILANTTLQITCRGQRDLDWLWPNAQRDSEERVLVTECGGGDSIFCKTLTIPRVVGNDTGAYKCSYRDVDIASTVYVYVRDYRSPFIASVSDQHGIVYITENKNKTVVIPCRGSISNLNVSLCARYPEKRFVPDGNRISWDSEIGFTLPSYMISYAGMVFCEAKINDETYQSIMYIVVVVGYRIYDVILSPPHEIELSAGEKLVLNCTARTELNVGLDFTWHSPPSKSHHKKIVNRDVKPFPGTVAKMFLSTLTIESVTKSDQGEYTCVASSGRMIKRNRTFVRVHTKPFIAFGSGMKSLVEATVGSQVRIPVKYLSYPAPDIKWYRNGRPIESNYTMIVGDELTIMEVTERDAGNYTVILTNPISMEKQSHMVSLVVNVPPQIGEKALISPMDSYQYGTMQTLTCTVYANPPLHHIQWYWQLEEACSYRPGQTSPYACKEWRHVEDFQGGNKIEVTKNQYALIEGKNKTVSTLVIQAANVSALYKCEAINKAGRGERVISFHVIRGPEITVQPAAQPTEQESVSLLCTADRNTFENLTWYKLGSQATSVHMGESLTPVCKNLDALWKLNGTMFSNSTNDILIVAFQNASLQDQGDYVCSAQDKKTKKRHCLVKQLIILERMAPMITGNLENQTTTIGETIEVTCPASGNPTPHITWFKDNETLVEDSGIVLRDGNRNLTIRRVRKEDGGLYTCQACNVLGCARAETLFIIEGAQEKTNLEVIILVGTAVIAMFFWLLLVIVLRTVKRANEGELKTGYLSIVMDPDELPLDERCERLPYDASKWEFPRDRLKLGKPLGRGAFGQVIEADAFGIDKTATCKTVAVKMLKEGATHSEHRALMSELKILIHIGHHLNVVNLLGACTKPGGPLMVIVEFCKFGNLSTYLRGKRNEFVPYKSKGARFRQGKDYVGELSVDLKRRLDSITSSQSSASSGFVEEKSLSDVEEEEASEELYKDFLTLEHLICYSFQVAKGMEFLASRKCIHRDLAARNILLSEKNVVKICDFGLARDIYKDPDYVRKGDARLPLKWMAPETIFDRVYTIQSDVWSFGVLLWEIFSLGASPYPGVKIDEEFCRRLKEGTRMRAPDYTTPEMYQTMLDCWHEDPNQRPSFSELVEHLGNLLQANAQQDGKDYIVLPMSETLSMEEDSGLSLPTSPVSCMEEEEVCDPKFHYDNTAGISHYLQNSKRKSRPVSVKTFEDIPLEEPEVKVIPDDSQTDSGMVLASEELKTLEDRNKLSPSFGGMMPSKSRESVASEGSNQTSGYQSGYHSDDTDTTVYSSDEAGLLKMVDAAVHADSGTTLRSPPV

Row | Compound | Met Kinase % Inhibition (MET) [%] | Fik Kinase %Inhibition (FLK-1 receptor) [%]
1 | CC(C)(C)c1cc(C=C2C(=O)Nc3ccc(I)cc32)cc(C(C)(C)C)c1O [10721/B11] | 6.7 | -2.1
2 | Cc1c(Br)ccc2c1C(=Cc1nc3ccccc3n1C)C(=O)N2 [10721/C02] | 59.2 | 9.7
3 | Cc1c(Br)ccc2c1C(=Cc1nn(C)cc1Cl)C(=O)N2 [10721/C03] | 6.2 | 16.5
4 | Cc1cc(C=C2C(=O)Nc3ccc(Br)c(C)c32)sc1C [10721/C04] | 88.7 | 21.8
5 | Cc1c(Br)ccc2c1C(=Cc1cc3c([nH]1)CCCC3)C(=O)N2 [10721/C05] | 48.7 | 56.4
6 | Cc1c(Br)ccc2c1C(=Cc1cc([N+](=O)[O-])cc(CCl)c1O)C(=O)N2 [10721/C06] | 56.4 | 14.4
7 | Cc1c(Br)ccc2c1C(=Cc1ccc(Cl)s1)C(=O)N2 [10721/C07] | 25.7 | 10.9
8 | Cc1cc(C)c(C=C2C(=O)Nc3ccc(Br)c(C)c32)[nH]1 [10721/C08] | 24.8 | 55.8
9 | Cc1c(Br)ccc2c1C(=Cc1ccc(O)c(C(C)(C)C)c1)C(=O)N2 [10721/C09] | -4.7 | 17.5
10 | Cc1c(Br)ccc2c1C(=Cc1cc(Br)c(O)c(C(C)(C)C)c1)C(=O)N2 [10721/C10] | 44.6 | 21.1
11 | Cc1c(Br)ccc2c1C(=Cc1cc(C(C)(C)C)c(O)c(C(C)(C)C)c1)C(=O)N2 [10721/C11] | 3.7 | 13.9
12 | CNS(=O)(=O)c1ccc2c(c1)C(=Cc1nc3ccccc3n1C)C(=O)N2 [10721/D02] | 22.5 | 15.1
13 | CNS(=O)(=O)c1ccc2c(c1)C(=Cc1nn(C)cc1Cl)C(=O)N2 [10721/D03] | 19.5 | 17.8
14 | CNS(=O)(=O)c1ccc2c(c1)C(=Cc1cc(C)c(C)s1)C(=O)N2 [10721/D04] | 35.3 | 15.2
15 | CNS(=O)(=O)c1ccc2c(c1)C(=Cc1cc3c([nH]1)CCCC3)C(=O)N2 [10721/D05] | 91.9 | -25.1
16 | CNS(=O)(=O)c1ccc2c(c1)C(=Cc1cc([N+](=O)[O-])cc(CCl)c1O)C(=O)N2 [10721/D06] | 9.0 | 1.6
17 | CNS(=O)(=O)c1ccc2c(c1)C(=Cc1ccc(Cl)s1)C(=O)N2 [10721/D07] | -6.8 | 6.4
18 | CNS(=O)(=O)c1ccc2c(c1)C(=Cc1[nH]c(C)cc1C)C(=O)N2 [10721/D08] | 45.3 | 3.9
19 | CNS(=O)(=O)c1ccc2c(c1)C(=Cc1ccc(O)c(C(C)(C)C)c1)C(=O)N2 [10721/D09] | -4.9 | 17.6
